Measurements: ChEMBL document CHEMBL3132776, “Synthesis of amphiphilic, chalcogen-based redox modulators with in vitro cytotoxic activity against cancer cells, macrophages and microbes” (Medchemcomm, 2014)
Calls of active or inactive are those of the source. The rule behind the calls is not given here.

What was measured:
[1] = Critical micelle concentration of the compound by KRUSS tensiometry; assay type: physicochemical
Erythrocyte [2] = test: Induction of membrane permeabilization assessed as hemolysis in RBC (unknown origin) by spectrophotometry based hemoglobin release assay; assay type: functional, cell-based
[3] = Cytotoxicity against human ARPE19 cells assessed as reduction in cell viability after 24 hrs by MTT assay; assay type: cell-based; conditions: ARPE-19, 24 h
Erythrocyte [4] = test: Induction of membrane permeabilization assessed as hemolysis in RBC (unknown origin) at 100 microM by spectrophotometry based hemoglobin release assay; assay type: functional
RAW264.7 = test: Cytotoxicity against mouse RAW264.7 cells assessed as reduction in cell viability after 24 hrs by MTT assay; assay type: functional, cell-based; conditions: RAW264.7, 24 h
HCT-116 [5] = test: Cytotoxicity against human p53-positive HCT116 cells assessed as reduction in cell viability after 24 hrs by MTT assay; assay type: functional, cell-based; conditions: HCT-116, 24 h
Steinernema feltiae = test: Nematicidal activity against Steinernema feltiae assessed as reduction in viability after 24 hrs; assay type: functional; conditions: read-out: LD50 (the source's name)
Escherichia coli = test: Antibacterial activity against Escherichia coli M17 VKPM-B8208 by agar plate assay; assay type: functional, organism-based
HCT-116 [6] = test: Drug uptake in human p53-positive HCT116 cells after 48 hrs by energy-dispersive X-ray spectroscopy; assay type: ADME, cell-based; conditions: hct-116, 48 h
[7] = biological target: Hemoglobin HbA (Homo sapiens) (UniProt P69905+P68871); test: Binding affinity to Hemoglobin (unknown origin) at 10 mM by circular dichroism spectroscopy
Hemoglobin HbA (Homo sapiens), sequence (P68871 2-147 partner limits assumed): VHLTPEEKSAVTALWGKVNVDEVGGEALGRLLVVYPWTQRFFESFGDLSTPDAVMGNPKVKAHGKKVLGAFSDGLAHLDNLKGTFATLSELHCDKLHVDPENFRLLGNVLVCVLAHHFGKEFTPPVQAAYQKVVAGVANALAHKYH
Hemoglobin HbA (Homo sapiens), sequence (P69905 2-142 limits assumed): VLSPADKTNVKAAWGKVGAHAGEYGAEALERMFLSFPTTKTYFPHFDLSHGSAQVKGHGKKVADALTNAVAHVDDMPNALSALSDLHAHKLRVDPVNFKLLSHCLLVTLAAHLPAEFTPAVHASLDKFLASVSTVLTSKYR

HCT-116 [8] = test: Induction of superoxide anion radicals generation in human p53-positive HCT116 cells at 50 microM within 40 mins by DHE staining based fluorescence assay; assay type: functional, cell-based
HCT-116 [9] = test: Reduction in mitochondrial membrane potential in human p53-positive HCT116 cells by JC-1 dye based fluorescence assay; assay type: functional, cell-based
HCT-116 [10] = test: Induction of superoxide anion radicals generation in human p53-positive HCT116 cells by DHE staining based fluorescence assay; assay type: functional, cell-based

| Compound | CMC [1] [mM] | Activity (Erythrocyte [2]) | IC50 [3] [µM] | Activity (Erythrocyte [4]) [%] | IC50 (RAW264.7) [µM] | IC50 (HCT-116 [5]) [µM] | LC50 (Steinernema feltiae) [µM] | IC50 (Escherichia coli) [µM] | Drug uptake (HCT-116 [6]) | Activity [7] | Activity (HCT-116 [8]) | Activity (HCT-116 [9]) | Activity (HCT-116 [10]) |
| --- | --- | --- | --- | --- | --- | --- | --- | --- | --- | --- | --- | --- | --- |
| O=S(=O)([O-])OCCCCCCCCCCC[Te]c1ccccc1.[Na+] | 0.5 | Dose-dependent effect | 50 | 53.35 | 7.84 | 9.73 |  |  |  |  |  |  |  |
| CCCCCCCCCCCCOS(=O)(=O)[O-].[Na+] [SODIUM LAURYL SULFATE] | 0.9 | Dose-dependent effect |  | 9.51 | > 100 | > 100 | > 400 |  |  |  |  |  |  |
| O=S(=O)([O-])OCCCCCCCC[Te]c1ccccc1.[Na+] | 5 | Dose-dependent effect | 50 | 3.09 | 3.95 | 5.99 | 78 | 550 | Active | Active | Active |  |  |
| O=S(=O)([O-])OCCCCCCCCCC[Se]c1ccccc1.[Na+] | 1.2 | Dose-dependent effect |  | 7.94 | > 100 | > 100 |  |  |  |  |  |  |  |
| O=S(=O)([O-])OCCCCCCCCCC[Te]c1ccccc1.[Na+] | 0.9 | Dose-dependent effect | 50 | 45.35 | 5.32 | 7.47 |  |  |  |  |  |  |  |
| O=S(=O)([O-])OCCCCCCCCC[Se]c1ccccc1.[Na+] | 2.5 | Dose-dependent effect |  | 2.73 | > 100 | > 100 |  |  |  |  |  |  |  |
| O=S(=O)([O-])OCCCCCCCCC[Te]c1ccccc1.[Na+] | 4.8 | Dose-dependent effect | 50 | 20.44 | 4.67 | 4.99 |  |  |  |  |  |  |  |
| O=S(=O)([O-])OCCCCCCCCCCCC[Te]c1ccccc1.[Na+] | 0.3 | Dose-dependent effect | 50 | 67.61 | 4.96 | 19.8 |  |  |  |  |  |  |  |
| O=S(=O)([O-])OCCCCCCCCCCC[Se]c1ccccc1.[Na+] | 1.1 | Dose-dependent effect |  | 63.41 | > 100 | > 100 |  |  |  |  |  |  |  |
| O=S(=O)([O-])OCCCCCCCCCCCC[Se]c1ccccc1.[Na+] | 0.7 | Dose-dependent effect |  | 66.8 | > 100 | > 100 |  |  |  |  |  |  |  |
| O=S(=O)([O-])OCCCCCCCC[Se]c1ccccc1.[Na+] | 2.6 | Dose-dependent effect |  | 1.24 | > 100 | > 100 | 30 |  |  | Active |  | inactive | inactive |
